Converted amounts (≈) assume the structure as drawn. Where two headings read alike, the source gives them in different places.
How the values were obtained:
Trichosporon asahii 1188 = assay: Antifungal evaluation, microdilution broth method; assay type: cell-based; details: TA
Protocol: (§1) Antifungal evaluation was also accomplished with microdilution broth method. On the contrary, there was used RPMI 1640 broth with glutamine as medium and conditions were humid and dark atmosphere, pH 7.0 (adjusted with 0.165 M morpholinepropanesulfonic acid, MOPS) and 35 °C. 8 fungal strains were used (Candida albicans ATCC 44859, Candida tropicalis 156, Candida krusei E28, Candida glabrata 20/I, Trichosporon asahii 1188, Aspergillus fumigatus 231, Lichtheimia corymbifera 272, Trichophyton mentagrophytes 445) together with four antimycotic standards amphotericin B, voriconazole, nystatin and fluconazole.

[1] = tested on: Lichtheimia corymbifera 272; assay: Antifungal evaluation, microdilution broth method; assay type: cell-based; details: LC
Protocol: as §1

[2] = tested on: Aspergillus fumigatus 231; assay: Antifungal evaluation, microdilution broth method; assay type: cell-based; details: AF
Protocol: as §1

[3] = tested on: Trichophyton mentagrophytes 445; assay: Antifungal evaluation, microdilution broth method; assay type: cell-based; details: TM
Protocol: as §1

Candida glabrata 20/I = assay: Antifungal evaluation, microdilution broth method; assay type: cell-based; details: CG
Protocol: as §1

[4] = tested on: Candida albicans ATCC 44859; assay: Antifungal evaluation, microdilution broth method; assay type: cell-based; details: CA
Protocol: as §1

Candida krusei E28 = assay: Antifungal evaluation, microdilution broth method; assay type: cell-based; details: CK
Protocol: as §1

Candida tropicalis 156 = assay: Antifungal evaluation, microdilution broth method; assay type: cell-based; details: CT
Protocol: as §1

[5] = tested on: PET in spinach chloroplasts; assay: Photosynthetic electron transport (PET) inhibition, DCPIP photoreduction; assay type: biochemical, Spinacia oleracea L.; details: for IC50: DCPIP photoreduction
Protocol: The inhibition of photosynthetic electron transport (PET) in spinach chloroplasts was determined spectrophotometrically (Genesys 6, Thermo Scientific, Madison, WI, USA) using an artificial electron acceptor 2,6-dichlorophenol-indophenol (DCPIP). The rate of photosynthetic electron transport was monitored as a photoreduction of DCPIP. Chloroplasts were prepared from Spinacia oleracea L.. The measurements were carried out in phosphate buffer (0.02 mol/L, pH 7.2) containing sucrose (0.4 mol/L), MgCl2 (0.005 mol/L) and NaCl (0.015 mol/L). The chlorophyll concentration was 30 mg/L and the samples were irradiated (~100 W/m^2 with 10 cm distance) with a halogen lamp (250 W). […] The studied compound were dissolved in DMSO due to their limited water solubility. […] The efficiency of studied compounds was expressed as 50% inhibition concentration relative to the untreated control. The standard for these measurements was DCMU (Diurone®).

[6] = Lipophilicity HPLC determination (logk); assay type: physicochemical; details: HPLC capacity factor, C18, MeOH 70%/H2O 30%, 30 °C
[7] = tested on: spectrum of fungi tested (8 fungal strains); assay: Antifungal evaluation, summary over the fungi tested; assay type: cell-based
Protocol: as §1

[8] = tested on: Staphylococcus epidermidis; assay: Antibacterial in vitro screening, microdilution broth method; assay type: cell-based; details: 80% inhibition of control
[9] = tested on: Mycobacterium tuberculosis H37Rv; assay: Antimycobacterial in vitro screening, microdilution broth panel method, Alamar Blue; assay type: cell-based; details: 336 h, M. tuberculosis H37Rv, Middlebrook 7H9, 14 days of incubation
[10] = Trichosporon asahii, 1188, 24 h
[11] = Trichosporon asahii, 1188, 48 h
[12] = Lichtheimia corymbifera, 272, 24 h
[13] = Lichtheimia corymbifera, 272, 48 h
[14] = Aspergillus fumigatus, 231, 24 h
[15] = Aspergillus fumigatus, 231, 48 h
[16] = Trichophyton mentagrophytes, 445, 72 h
[17] = Trichophyton mentagrophytes, 445, 120 h
[18] = Nakaseomyces glabratus, 20/I, 24 h
[19] = Nakaseomyces glabratus, 20/I, 48 h
[20] = Candida albicans, ATCC44859, 24 h
[21] = Candida albicans, ATCC44859, 48 h
[22] = nearly a whole spectrum of fungi tested, after 24 h of incubation, read-out: 80% inhibition of control (IC80), range over fungi

SMILES | IC80 (Trichosporon asahii 1188; [10]) [µM] | IC80 (Trichosporon asahii 1188; [11]) [µM] | IC80 [1, 12] [µM] | IC80 [1, 13] [µM] | IC80 [2, 14] [µM] | IC80 [2, 15] [µM] | IC80 [3, 16] [µM] | IC80 [3, 17] [µM] | IC80 (Candida glabrata 20/I; [18]) [µM] | IC80 (Candida glabrata 20/I; [19]) [µM] | IC80 [4, 20] [µM] | IC80 [4, 21] [µM] | IC80 (Candida krusei E28; Pichia kudriavzevii, E28, 24 h) [µM] | IC80 (Candida krusei E28; Pichia kudriavzevii, E28, 48 h) [µM] | IC80 (Candida tropicalis 156; Candida tropicalis, 156, 24 h) [µM] | IC80 (Candida tropicalis 156; Candida tropicalis, 156, 48 h) [µM] | IC50 [5] [µM] | logk [6] | further results
NC(=O)c1nccnc1NC1CCCC1 [Compound 11, 3-(Cyclopentylamino)pyrazine-2-carboxamide] | 500 | > 500 | > 500 | > 500 | 500 | > 500 | 500 | 500 | 250 | > 500 | 500 | > 500 | 250 | 500 | > 500 | > 500 | 25.8 | 0.2537 | IC80 ([7]; fungi tested, less active than the standards, read-out: IC80 antifungal): ≥ 250 µM
NC(=O)c1nccnc1NC1CCCCC1 [Compound 12, 3-(Cyclohexylamino)pyrazine-2-carboxamide] | 31.2 | 250 | 250 | 500 | 15.6 | 62.5 | 15.6 | 15.6 | 15.6 | 31.2 | 31.2 | 62.5 | 15.6 | 62.5 | 125 | 500 | 83 | 0.4523 | IC80 [7, 22]: 15.6 to 31.2 µM
NC(=O)c1nccnc1NC1CCCCCC1 [Compound 13, 3-(Cycloheptylamino)pyrazine-2-carboxamide] | 31.2 | 125 | 62.5 | 250 | 7.81 | 7.81 | 15.6 | 15.6 | 7.81 | 15.6 | 15.6 | 31.2 | 7.81 | 31.2 | 62.5 | 500 | 19.3 | 0.6575 | IC80 [7, 22]: 7.81 to 31.2 µM; IC80 [8]: < 250 µM
NC(=O)c1nccnc1N1CCOCC1 [Compound 16, 3-(Morpholin-4-yl)pyrazine-2-carboxamide] |  |  |  |  |  |  |  |  |  |  |  |  |  |  |  |  |  | −0.6238 | PET inhibition (result in words) [5]: did not inhibit PET
CN1CCN(c2nccnc2C(N)=O)CC1 [Compound 17, 3-(4-Methylpiperazin-1-yl)pyrazine-2-carboxamide] |  |  |  |  |  |  |  |  |  |  |  |  |  |  |  |  |  | −0.4253 | PET inhibition (result in words) [5]: did not inhibit PET
NC(=O)c1nccnc1N1CCNCC1 [Compound 18, 3-(Piperazin-1-yl)pyrazine-2-carboxamide] |  |  |  |  |  |  |  |  |  |  |  |  |  |  |  |  |  | −2.3522 | PET inhibition (result in words) [5]: did not inhibit PET
CN(C)C(=O)Nc1ccc(Cl)c(Cl)c1 [DCMU, 3-(3,4-dichlorophenyl)-1,1-dimethylurea, reference compound] |  |  |  |  |  |  |  |  |  |  |  |  |  |  |  |  | 1.9 |  | 
OC(Cn1cncn1)(Cn1cncn1)c1ccc(F)cc1F [FLU, fluconazole] | 250 | 500 | > 500 | > 500 | > 500 | > 500 | 7.81 | 125 | 31.2 | 250 | 0.24 | 0.24 | 125 | 250 | > 500 | > 500 |  |  | 
C[C@@H]1[C@H](O)[C@@H](C)/C=C/C=C/CC/C=C/C=C/C=C/C=C/C(O[C@H]2O[C@H](C)[C@@H](O)[C@H](N)[C@@H]2O)CC2O[C@](O)(CC(O)C(O)CCC(O)CC(O)CC(O)CC(=O)O[C@H]1C)CC(O)C2C(=O)O (stereo partly shown) [NYS, nystatin] |  |  |  |  |  |  |  |  |  |  |  |  |  |  |  |  |  |  | IC80 (Trichosporon asahii 1188; 24 h): 1.95 µM; IC80 (Trichosporon asahii 1188; 48 h): 1.95 µM; IC80 ([1]; 24 h): 15.6 µM; IC80 ([1]; 48 h): 31.2 µM; IC80 ([2]; 24 h): 1.95 µM; IC80 ([2]; 48 h): 3.9 µM; IC80 ([3]; 72 h): 3.9 µM; IC80 ([3]; 120 h): 7.81 µM; IC80 (Candida glabrata 20/I; 24 h): 1.95 µM; IC80 (Candida glabrata 20/I; 48 h): 3.9 µM; IC80 ([4]; 24 h): 0.98 µM; IC80 ([4]; 48 h): 1.95 µM; IC80 (Candida krusei E28; 24 h): 1.95 µM; IC80 (Candida krusei E28; 48 h): 3.9 µM; IC80 (Candida tropicalis 156; 24 h): 1.95 µM; IC80 (Candida tropicalis 156; 48 h): 3.9 µM
C[C@@H](c1ncncc1F)[C@](O)(Cn1cncn1)c1ccc(F)cc1F [VOR, voriconazole] | 7.81 | 31.2 | 250 | 250 | 0.49 | 0.98 | 0.06 | 0.12 | 250 | 250 | 0.008 | 0.008 | 0.98 | 1.95 | 250 | 250 |  |  | 
NNC(=O)c1ccncc1 [isoniazid] |  |  |  |  |  |  |  |  |  |  |  |  |  |  |  |  |  |  | MIC [9]: 0.39 µg/mL (≈ 2.84 µM)
NC(=O)c1cnccn1 [pyrazinamide] |  |  |  |  |  |  |  |  |  |  |  |  |  |  |  |  |  |  | MIC [9]: 12.5 µg/mL (≈ 102 µM)

Source: publication PMC6271988, “New Potentially Active Pyrazinamide Derivatives Synthesized Under Microwave Conditions” (Molecules, 2014)
